Laboratory results from BindingDB's records for doi:10.7270/Q2G44NRK (Burnham Center For Chemical Genomics, 2010).

Biological target: Mu-type opioid receptor (Homo sapiens, UniProt P35372)
Assay: mu opioid receptor blockers – image-based, SAR follow-up (AID 2420)

Sequence of Mu-type opioid receptor (P35372 whole entry): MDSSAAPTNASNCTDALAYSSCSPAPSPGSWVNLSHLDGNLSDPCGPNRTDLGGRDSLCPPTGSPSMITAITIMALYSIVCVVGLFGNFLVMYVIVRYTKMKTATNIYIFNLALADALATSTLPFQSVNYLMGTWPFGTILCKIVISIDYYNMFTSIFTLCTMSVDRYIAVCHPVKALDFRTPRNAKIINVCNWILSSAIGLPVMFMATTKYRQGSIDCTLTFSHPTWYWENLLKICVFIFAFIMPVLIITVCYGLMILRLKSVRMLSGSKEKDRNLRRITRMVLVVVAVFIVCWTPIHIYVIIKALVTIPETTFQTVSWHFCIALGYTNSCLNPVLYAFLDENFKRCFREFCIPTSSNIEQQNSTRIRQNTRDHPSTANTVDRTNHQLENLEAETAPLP

Compound	IC50 [µM]
CCC(N=Nc1ccnc2cc(Cl)ccc12)c1ccc(O)cc1 (configuration not stated) [4-[1-[2-(7-chloroquinolin-4-yl)hydrazinyl]propylidene]cyclohexa-2,5-dien-1-one]	> 32
Oc1ccc(CN=Nc2ccnc3cc(Cl)ccc23)cc1O [(4Z)-4-[[2-(7-chloroquinolin-4-yl)hydrazinyl]methylidene]-2-hydroxycyclohexa-2,5-dien-1-one]	> 32
